In article PMC2970562, “High-Affinity Inhibitors of Human NAD^+-Dependent 15-Hydroxyprostaglandin Dehydrogenase: Mechanisms of Inhibition and Structure-Activity Relationships” (PLoS ONE, 2010):

biological target: T1, human 15-PGDH (Homo sapiens, UniProt P15428); experiment: qHTS and 24-point re-test: fluorescence assay of NAD+ reduction to NADH on PGE2 oxidation (PubChem AID 894); format: biochemical; conditions: control inhibitor, 16-point dilution series in duplicate on every qHTS plate; read-out: average IC50
T1 construct: comprising residues 3–256 of the human HPGD gene (GenBank identifier: 1203982); His6 (GHHHHHH, behind the TEV site) (C, cleaved yes); made in house; host or cells: E. coli BL21(DE3)-R3
T1 sequence (P15428 3-256): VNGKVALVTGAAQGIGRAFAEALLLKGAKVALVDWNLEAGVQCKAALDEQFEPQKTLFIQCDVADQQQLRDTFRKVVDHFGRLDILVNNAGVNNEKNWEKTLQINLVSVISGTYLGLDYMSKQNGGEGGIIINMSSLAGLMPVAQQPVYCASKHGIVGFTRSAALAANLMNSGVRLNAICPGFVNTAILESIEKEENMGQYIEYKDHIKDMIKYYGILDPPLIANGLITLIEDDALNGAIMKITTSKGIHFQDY
Experimental: The assay was miniaturized to a 4-µL volume in 1536-well format: enzyme (3 µL) was dispensed first, followed by a pintool transfer of library compounds dissolved in DMSO. After equilibration, a substrate dispense (1 µL) initiated the enzymatic reaction (see Materials and Methods, for detailed protocol description). […] Hits associated with low-efficacy (<40% maximum inhibition), incomplete curves, as well as those displaying only a single-point inhibition at the top concentration tested were eliminated from further consideration. Similarly, the collection of real-time kinetic data allowed the autofluorescence of each compound to be evaluated by comparing the initial fluorescence read at top concentration with the mean value of uninhibited assay controls: compounds whose top-concentration initial well fluorescence exceeded six standard deviations over the mean were flagged as potential autofluorescent artifacts, [28] (see example in supplementary information Figure S1E). The complete screening and followup results are available in PubChem (PubChem Assay ID 894).
The enzymatic reaction was performed in 50 mM Tris-HCl pH 8.0, containing 0.01% Tween 20. […] The high-throughput screen was performed on a fully integrated robotic system (Kalypsys Inc, San Diego, CA) as described elsewhere. Library compounds, arrayed as seven-point inter-plate concentration series, were screened from the lowest (3.5 nM) to the highest (57.5 µM) concentration, with plates containing DMSO only, serving to note any systematic drifts in the signal, interspersed evenly throughout the screen (approximately every 50 plates). Briefly, 3 µL of reagents were dispensed into 1536-well Greiner black solid-bottom assay plates using integrated nanoliter solenoid-technology dispensers. Compounds and controls (23 nL) were transferred via Kalypsys pintool equipped with 1,536-pin array (10-nL slotted pins; V&P Scientific, Palo Alto, CA). After a 15-minute incubation (to allow for interaction between compound and enzyme), a 1-µL substrate addition step initiated the reaction. Kinetic data were collected on a ViewLux High-throughput CCD imager (Perkin-Elmer) equipped with standard UV fluorescence optics (exc. 340 nm, em. 450 nm).
Starting fluorescence intensity and the change in fluorescence over the two-minute initial rate period were recorded for every well. Screening data were normalized against no-enzyme (64 wells, columns 3 and 4) and no-compound (32 wells located in column 1) controls, and concentration-response relationships were derived as described previously. A four-parameter Hill equation [47] was fitted to the concentration-response data using publicly available algorithms (http://www.ncgc.nih.gov/pub/openhts/curvefit/).

Work on O=C1Nc2ccc(I)cc2/C1=C/c1cc(Br)c(O)c(Br)c1 [GW5074, reference compound] yielded an IC50 of 10400 nM.

same assay, conditions: potency in 24-point titrations on re-test; 20 nM 15-PGDH, 1 mM NAD+, 30 µM PGE2, pH 8.0

With COc1ccc(N2CCN(C(=O)c3ccc(CSc4ccccc4)cc3)CC2)cc1 [Compound 6] the “qHTS IC50 [nM]” value was “Inactive”.
For Cc1ccc2nc(SCC(=O)N3CCCC[C@@H]3C)c(C#N)cc2c1 [Compound 49], the “qHTS IC50 [nM]” value was “Inactive”.
With CC(C)(C)c1ccc(C(=O)O/N=C(\N)c2ccc(Cl)cc2)cc1 [Compound 39] the “qHTS IC50 [nM]” value was “inactive”.

same assay, conditions: potency in 24-point titrations on re-test; 20 nM 15-PGDH, 1 mM NAD+, 30 µM PGE2, pH 8.0; read-out: qHTS IC50

In order of falling IC50:
1. CC(C)(C)OC(=O)NC(Cc1csc2ccccc12)C(=O)CCc1cc(C(F)(F)F)cc(C(F)(F)F)c1 (stereo not shown) [Compound 50]  6310 nM
2. CCCCCCCCNCCOCCOCCOCCOCCNCCCCCCCC [Compound 31]  3980 nM
3. Cc1ccccc1C(=O)N1CCc2ccccc2C1 [Compound 18]  2510 nM
4. O=c1c2ccccc2sn1-c1cc(S(=O)(=O)N2CCOCC2)ccc1N1CCCC1 [Compound 71]  2510 nM
5. Cc1ccc(C2=NC(=CN3CCOCC3)C(=O)O2)cc1 [Compound 54]  2510 nM
6. COc1ccc(C(=O)OCC(=O)Nc2c(C)cccc2C)cc1S(=O)(=O)N(C)C [Compound 57]  2240 nM
7. Cc1cc([N+](=O)[O-])c2c(c1C)[C@@H]1C=CC[C@@H]1C(c1cccc(Cl)c1)N2 (stereo partly shown) [Compound 37]  2000 nM
8. COCCNC(=O)c1cc2oc3ccccc3c2n1C [Compound 45]  1580 nM
9. Cc1cc(=O)oc2cc(OCC(=O)N3CCCc4ccccc43)ccc12 [Compound 79]  1120 nM
10. CC(O)CN(C)C(C)N(CCN(C)C)CCN(C)C (stereo not shown) [Compound 56]  1000 nM
11. C=C(C(=O)OC)C1CCC2(C)C(OC(=O)C(Cc3ccc(O)cc3)OC(=O)C(O)C(C)C)CCC(O)(COC3OC(CO)C(O)C(O)C3O)C2C1O (stereo not shown) [Compound 2]  794 nM
12. C[C@H]1CCCCN1C(=O)CSc1nnc(-c2ccccc2F)o1 [Compound 17]  708 nM
13. Fc1ccccc1CSc1nc2cc(Br)cnc2[nH]1 [Compound 60]  631 nM
14. COc1ccccc1NS(=O)(=O)c1cc(C(=O)N2CCC2)ccc1C [Compound 30]  562 nM
15. C=CCN1C(=O)[C@@H](CC(=O)Nc2cc(C)ccc2C)SC1=Nc1cc(C)cc(C)c1 [Compound 8]  200 nM
16. CC1CCCN(C(=O)c2ccc(COc3ccccc3Br)cc2)C1 (stereo not shown) [Compound 11]  126 nM

same assay, conditions: re-test of qHTS hits, Figure 2; read-out: IC50 from re-testing

COc1ccc(N2CCN(C(=O)c3ccc(CSc4ccccc4)cc3)CC2)cc1 [Compound 6] gave an IC50 greater than 10000 nM.

biological target: T1, human 15-PGDH; experiment: Differential scanning fluorimetry (DSF), thermal stabilization; format: binding; conditions: with 200 µM NAD+; 1 µM protein, compound 50 or 250 µM; N/A = no unfolding transition observed in DSF
Experimental: A correlation between the ΔTm and the inhibitory potency has been shown in a number of protein-ligand systems, particularly for kinases [32]–[34].
Studies to assess the thermal stability of human 15-PGDH in presence of compounds were performed as described previously, with variations. Briefly, the protein was diluted to a final assay concentration of 1 µM in 100 mM Tris buffer pH 8.0, containing 0.01% Tween-20 and 1∶1000 SYPRO orange dye (Invitrogen). […] Compounds were added at a ratio of 1∶5 from appropriate stock solutions in 10% (v/v) DMSO to comprise either 50 or 250 µM final concentrations. Heat denaturation curves were recorded using a RT-PCR instrument (Mx3005p, Agilent) applying a temperature gradient of 2°C/min. […] 2.5 (ftp://ftp.sgc.ox.ac.uk/pub/biophysics) and PRISM 5.0 (GraphPad Software, Inc.).

In order of falling “∆Tm [°C] NAD+” value:
1. COc1ccc(C(=O)OCC(=O)Nc2c(C)cccc2C)cc1S(=O)(=O)N(C)C [Compound 57]  9.2 °C
2. Fc1ccccc1CSc1nc2cc(Br)cnc2[nH]1 [Compound 60]  7.6 °C
3. CC(O)CN(C)C(C)N(CCN(C)C)CCN(C)C (stereo not shown) [Compound 56]  6.1 °C
4. Cc1ccc(C2=NC(=CN3CCOCC3)C(=O)O2)cc1 [Compound 54]  6.0 °C
5. CC1CCCN(C(=O)c2ccc(COc3ccccc3Br)cc2)C1 (stereo not shown) [Compound 11]  3.8 °C
6. C[C@H]1CCCCN1C(=O)CSc1nnc(-c2ccccc2F)o1 [Compound 17]  3.3 °C
7. C=CCN1C(=O)[C@@H](CC(=O)Nc2cc(C)ccc2C)SC1=Nc1cc(C)cc(C)c1 [Compound 8]  3.0 °C
8. COCCNC(=O)c1cc2oc3ccccc3c2n1C [Compound 45]  2.7 °C
9. O=c1c2ccccc2sn1-c1cc(S(=O)(=O)N2CCOCC2)ccc1N1CCCC1 [Compound 71]  2.4 °C
10. COc1ccccc1NS(=O)(=O)c1cc(C(=O)N2CCC2)ccc1C [Compound 30]  2.4 °C
11. CC(C)(C)OC(=O)NC(Cc1csc2ccccc12)C(=O)CCc1cc(C(F)(F)F)cc(C(F)(F)F)c1 (stereo not shown) [Compound 50]  1.9 °C
12. C=C(C(=O)OC)C1CCC2(C)C(OC(=O)C(Cc3ccc(O)cc3)OC(=O)C(O)C(C)C)CCC(O)(COC3OC(CO)C(O)C(O)C3O)C2C1O (stereo not shown) [Compound 2]  1.7 °C
13. Cc1ccccc1C(=O)N1CCc2ccccc2C1 [Compound 18]  1.5 °C
14. Cc1cc([N+](=O)[O-])c2c(c1C)[C@@H]1C=CC[C@@H]1C(c1cccc(Cl)c1)N2 (stereo partly shown) [Compound 37]  1.1 °C
15. CCCCCCCCNCCOCCOCCOCCOCCNCCCCCCCC [Compound 31]  1.1 °C

same assay, conditions: with 200 µM NADH; 1 µM protein, compound 50 or 250 µM; N/A = no unfolding transition observed in DSF

In order of rising “∆Tm [°C] NADH” value:
1. O=c1c2ccccc2sn1-c1cc(S(=O)(=O)N2CCOCC2)ccc1N1CCCC1 [Compound 71]  -0.4 °C
2. CC(O)CN(C)C(C)N(CCN(C)C)CCN(C)C (stereo not shown) [Compound 56]  0.4 °C
3. Fc1ccccc1CSc1nc2cc(Br)cnc2[nH]1 [Compound 60]  1.5 °C
4. COc1ccc(C(=O)OCC(=O)Nc2c(C)cccc2C)cc1S(=O)(=O)N(C)C [Compound 57]  1.6 °C
5. CC(C)(C)OC(=O)NC(Cc1csc2ccccc12)C(=O)CCc1cc(C(F)(F)F)cc(C(F)(F)F)c1 (stereo not shown) [Compound 50]  1.7 °C
6. Cc1ccccc1C(=O)N1CCc2ccccc2C1 [Compound 18]  2.2 °C
7. COCCNC(=O)c1cc2oc3ccccc3c2n1C [Compound 45]  2.9 °C
8. Cc1ccc(C2=NC(=CN3CCOCC3)C(=O)O2)cc1 [Compound 54]  3.9 °C
9. C[C@H]1CCCCN1C(=O)CSc1nnc(-c2ccccc2F)o1 [Compound 17]  4.4 °C
10. CCCCCCCCNCCOCCOCCOCCOCCNCCCCCCCC [Compound 31]  4.8 °C
11. Cc1cc([N+](=O)[O-])c2c(c1C)[C@@H]1C=CC[C@@H]1C(c1cccc(Cl)c1)N2 (stereo partly shown) [Compound 37]  5.0 °C
12. C=C(C(=O)OC)C1CCC2(C)C(OC(=O)C(Cc3ccc(O)cc3)OC(=O)C(O)C(C)C)CCC(O)(COC3OC(CO)C(O)C(O)C3O)C2C1O (stereo not shown) [Compound 2]  6.0 °C
13. COc1ccccc1NS(=O)(=O)c1cc(C(=O)N2CCC2)ccc1C [Compound 30]  6.4 °C
14. C=CCN1C(=O)[C@@H](CC(=O)Nc2cc(C)ccc2C)SC1=Nc1cc(C)cc(C)c1 [Compound 8]  6.6 °C
15. CC1CCCN(C(=O)c2ccc(COc3ccccc3Br)cc2)C1 (stereo not shown) [Compound 11]  10.6 °C

same assay, conditions: without cofactor; 1 µM protein, compound 50 or 250 µM; N/A = no unfolding transition observed in DSF

In order of falling “∆Tm [°C] apo” value:
1. COc1ccccc1NS(=O)(=O)c1cc(C(=O)N2CCC2)ccc1C [Compound 30]  0.2 °C
2. C[C@H]1CCCCN1C(=O)CSc1nnc(-c2ccccc2F)o1 [Compound 17]  0.1 °C
3. CC(O)CN(C)C(C)N(CCN(C)C)CCN(C)C (stereo not shown) [Compound 56]  0.0 °C
4. CCCCCCCCNCCOCCOCCOCCOCCNCCCCCCCC [Compound 31]  -0.1 °C
5. Fc1ccccc1CSc1nc2cc(Br)cnc2[nH]1 [Compound 60]  -0.2 °C
6. COc1ccc(C(=O)OCC(=O)Nc2c(C)cccc2C)cc1S(=O)(=O)N(C)C [Compound 57]  -0.3 °C
7. CC1CCCN(C(=O)c2ccc(COc3ccccc3Br)cc2)C1 (stereo not shown) [Compound 11]  -0.4 °C
8. C=C(C(=O)OC)C1CCC2(C)C(OC(=O)C(Cc3ccc(O)cc3)OC(=O)C(O)C(C)C)CCC(O)(COC3OC(CO)C(O)C(O)C3O)C2C1O (stereo not shown) [Compound 2]  -0.6 °C
9. Cc1ccccc1C(=O)N1CCc2ccccc2C1 [Compound 18]  -1.1 °C
10. C=CCN1C(=O)[C@@H](CC(=O)Nc2cc(C)ccc2C)SC1=Nc1cc(C)cc(C)c1 [Compound 8]  -1.4 °C
11. Cc1ccc(C2=NC(=CN3CCOCC3)C(=O)O2)cc1 [Compound 54]  -1.5 °C
12. O=c1c2ccccc2sn1-c1cc(S(=O)(=O)N2CCOCC2)ccc1N1CCCC1 [Compound 71]  -1.8 °C
13. CC(C)(C)OC(=O)NC(Cc1csc2ccccc12)C(=O)CCc1cc(C(F)(F)F)cc(C(F)(F)F)c1 (stereo not shown) [Compound 50]  -1.9 °C
14. COCCNC(=O)c1cc2oc3ccccc3c2n1C [Compound 45]  -1.9 °C
15. Cc1cc([N+](=O)[O-])c2c(c1C)[C@@H]1C=CC[C@@H]1C(c1cccc(Cl)c1)N2 (stereo partly shown) [Compound 37]  -2.0 °C
16. Cc1cc(=O)oc2cc(OCC(=O)N3CCCc4ccccc43)ccc12 [Compound 79]  -4.1 °C
